Results published in patent US10780090B2, “Heteroaryl compounds useful as inhibitors of SUMO activating enzyme” (Millennium Pharmaceuticals, Inc., priority 2014, dated 2020).

Biological target: recombinant human SAE enzyme (Homo sapiens (Human), UniProt Q9UBT2)
Assay: SAE HTRF enzyme assay
Type: biochemical
Settings: for inhibition at 0.111 µM: read-out: Percent Inhibition
How it was run: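 Sumoylation of Ubc9-GST by SAE was followed at low ATP (0.5 μM), pH 7.5, 24° C. for 105 min. Product was detected by HTRF with antibody pairs against Flag and GST tags.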

[1] = SAE inhibition at compound concentration 0.111 μM
[2] = SAE inhibition, class symbols, legend in nM

Chain of recombinant human SAE enzyme (Q9UBT2 whole entry): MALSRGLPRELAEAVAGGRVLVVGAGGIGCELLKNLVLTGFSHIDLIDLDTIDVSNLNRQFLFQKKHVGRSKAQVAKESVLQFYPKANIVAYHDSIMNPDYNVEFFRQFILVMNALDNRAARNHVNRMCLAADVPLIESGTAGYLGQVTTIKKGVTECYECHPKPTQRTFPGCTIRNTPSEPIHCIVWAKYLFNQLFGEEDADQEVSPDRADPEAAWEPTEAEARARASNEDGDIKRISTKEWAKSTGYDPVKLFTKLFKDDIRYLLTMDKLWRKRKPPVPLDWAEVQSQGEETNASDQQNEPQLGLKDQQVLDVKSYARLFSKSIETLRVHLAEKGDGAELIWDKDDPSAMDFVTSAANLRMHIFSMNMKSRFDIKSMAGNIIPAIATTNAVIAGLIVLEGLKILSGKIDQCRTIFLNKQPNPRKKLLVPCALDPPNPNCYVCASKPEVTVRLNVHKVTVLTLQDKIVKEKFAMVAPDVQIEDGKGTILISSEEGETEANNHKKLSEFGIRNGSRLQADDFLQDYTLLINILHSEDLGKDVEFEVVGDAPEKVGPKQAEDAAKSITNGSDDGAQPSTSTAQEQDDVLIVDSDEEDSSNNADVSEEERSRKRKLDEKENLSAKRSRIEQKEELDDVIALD
Chain of recombinant human SAE enzyme (Q9UBE0 whole entry partner): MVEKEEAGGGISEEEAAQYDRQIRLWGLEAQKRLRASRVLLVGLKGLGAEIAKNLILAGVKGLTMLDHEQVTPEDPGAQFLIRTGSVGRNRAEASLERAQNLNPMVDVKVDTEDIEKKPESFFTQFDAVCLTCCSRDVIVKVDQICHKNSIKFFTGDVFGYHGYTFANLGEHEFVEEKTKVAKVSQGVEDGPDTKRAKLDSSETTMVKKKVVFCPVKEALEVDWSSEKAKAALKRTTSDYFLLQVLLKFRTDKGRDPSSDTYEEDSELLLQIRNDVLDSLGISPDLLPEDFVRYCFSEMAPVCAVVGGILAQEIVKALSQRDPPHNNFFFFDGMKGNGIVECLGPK

SMILES	inhibition at 0.111 µM (Concentration 0.111 μM)	IC50 (class symbols A/B/C)	Percent Inhibition (Concentration 0.111 μM)	Percent Inhibition [1]	IC50 [2]
NS(=O)(=O)OC[C@H]1C[C@@H](Nc2ncncc2C(=O)c2cc(Cc3cccc(Br)c3)cs2)C[C@@H]1O [I-59, {(1R,2S,4R)-4-[(5-{[4-(3-Bromobenzyl)-2-thienyl]carbonyl}pyrimidin-4-yl)amino]-2-hydroxycyclopentyl}methyl sulfamate]	99%	–	–	–	–
CC(C)(O)c1csc(C(=O)c2cncnc2N[C@@H]2C[C@H](COS(N)(=O)=O)[C@@H](O)C2)c1 [I-240, {(1R,2S,4R)-2-Hydroxy-4-[(5-{[4-(2-hydroxypropan-2-yl)-2-thienyl]carbonyl}pyrimidin-4-yl)amino]cyclopentyl}methyl sulfamate]	19%	100 to 1000 nM	–	–	–
CN[C@H](c1cccc(Cl)c1)c1csc(C(=O)c2cncnc2N[C@@H]2C[C@H](COS(N)(=O)=O)[C@@H](O)C2)c1 (single isomer, unassigned) [I-47b, [(1R,2S,4R)-4-{[5-({4-[(R)-(3-chlorophenyl)(methylamino)methyl]-2-thienyl}carbonyl)pyrimidin-4-yl]amino}-2-hydroxycyclopentyl]methyl sulfamate or [(1R,2S,4R)-4-{[5-({4-[(S)-(3-chlorophenyl)(methylamino)methyl]-2-thienyl}carbonyl)pyrimidin-4-yl]amino}-2-hydroxycyclopentyl]methyl sulfamate]	–	< 10 nM	99	–	–
NS(=O)(=O)OC[C@H]1C[C@@H](Nc2ncncc2C(=O)c2cc([C@@H]3OCCc4cccnc43)c(Cl)s2)C[C@@H]1O (single isomer, unassigned) [I-266a, [(1R,2S,4R)-4-{[5-({5-chloro-4-[(8S)-5,8-dihydro-6H-pyrano[3,4-b]pyridin-8-yl]-2-thienyl}carbonyl)pyrimidin-4-yl]amino}-2-hydroxycyclopentyl]methyl sulfamate or [(1R,2S,4R)-4-{[5-({5-chloro-4-[(8R)-5,8-dihydro-6H-pyrano[3,4-b]pyridin-8-yl]-2-thienyl}carbonyl)pyrimidin-4-yl]amino}-2-hydroxycyclopentyl]methyl sulfamate]	–	100 to 1000 nM	41	–	–
NS(=O)(=O)OCC1CC(Nc2ncncc2C(=O)c2cc(C(O)c3cccc(Cl)n3)cs2)CC1O (mixture of isomers) [I-29, [(1R,2S,4R)-4-({5-[{4-[(S)-(6-Chloropyridin-2-yl)(hydroxy)methyl]-2-thienyl}carbonyl)pyrimidin-4-yl]amino}-2-hydroxycyclopentyl]methyl sulfamate and [(1R,2S,4R)-4-{[5-({4-[(R)-(6-Chloropyridin-2-yl)(hydroxy)methyl]-2-thienyl}carbonyl)pyrimidin-4-yl]amino}-2-hydroxycyclopentyl]methyl sulfamate]	–	< 10 nM	100	–	–
NS(=O)(=O)OC[C@H]1C[C@@H](Nc2ncncc2C(=O)c2cc(CNCc3ccccc3)cs2)C[C@@H]1O [I-222, [(1R,2S,4R)-4-{[5-({4-(Benzylamino)methyl]-2-thienyl)carbonyl)pyrimidin-4-yl]amino}-2-hydroxycyclopentyl]methyl sulfamate]	–	100 to 1000 nM	31	–	–
N[C@H](c1cccc(Cl)c1)c1csc(C(=O)c2cncnc2N[C@@H]2C[C@H](COS(N)(=O)=O)[C@@H](O)C2)c1 (single isomer, unassigned) [I-36a, [(1R,2S,4R)-4-{[5-({4-[(R)-amino(3-chlorophenyl)methyl]-2-thienyl}carbonyl)pyrimidin-4-yl]amino}-2-hydroxycyclopentyl]methyl sulfamate or [(1R,2S,4R)-4-{[5-({4-[(S)-amino(3-chlorophenyl)methyl]-2-thienyl}carbonyl)pyrimidin-4-yl]amino}-2-hydroxycyclopentyl]methyl sulfamate]	–	< 10 nM	100	–	–
N#Cc1sc(C(=O)c2cncnc2N[C@@H]2C[C@H](COS(N)(=O)=O)[C@@H](O)C2)cc1Cc1cccc(Cl)c1 [I-179, {(1R,2S,4R)-4-[(5-{[4-(3-chlorobenzyl)-5-cyano-2-thienyl]carbonyl}pyrimidin-4-yl)amino]-2-hydroxycyclopentyl}methyl sulfamate]	86%	10 to 100 nM	–	–	–
NS(=O)(=O)OC[C@H]1C[C@@H](Nc2ncncc2C(=O)c2ccc([C@@H]3OCCCc4ccc(Cl)cc43)s2)C[C@@H]1O (single isomer, unassigned) [I-343a, [(1R,2S,4R)-4-{[5-({5-[(1R)-8-chloro-1,3,4,5-tetrahydro-2-benzoxepin-1-yl]-2-thienyl}carbonyl)pyrimidin-4-yl]amino}-2-hydroxycyclopentyl]methyl sulfamate or [(1R,2S,4R)-4-{[5-({5-[(1S)-8-chloro-1,3,4,5-tetrahydro-2-benzoxepin-1-yl]-2-thienyl}carbonyl)pyrimidin-4-yl]amino}-2-hydroxycyclopentyl]methyl sulfamate]	–	–	–	57%	10 to 100 nM
NS(=O)(=O)OC[C@H]1C[C@@H](Nc2ncncc2C(=O)c2cc([C@@H]3NCc4ccc(Cl)cc43)c(Cl)s2)C[C@@H]1O (mixture of isomers) [I-262, [(1R,2S,4R)-4-{[5-({5-chloro-4-[(1R)-6-chloro-2,3-dihydro-1H-isoindol-1-yl]-2-thienyl}carbonyl)pyrimidin-4-yl]amino}-2-hydroxycyclopentyl]methyl sulfamate and [(1R,2S,4R)-4-{[5-({5-chloro-4-[(1S)-6-chloro-2,3-dihydro-1H-isoindol-1-yl]-2-thienyl}carbonyl)pyrimidin-4-yl]amino}-2-hydroxycyclopentyl]methyl sulfamate]	–	< 10 nM	100	–	–
C[C@@](O)(c1cccc(Br)c1)c1csc(C(=O)c2cncnc2N[C@@H]2C[C@H](COS(N)(=O)=O)[C@@H](O)C2)c1.C[C@](O)(c1cccc(Br)c1)c1csc(C(=O)c2cncnc2N[C@@H]2C[C@H](COS(N)(=O)=O)[C@@H](O)C2)c1 (mixture of isomers) [I-3, [(1R,2S,4R)-4-{[5-({4-[(1S)-1-(3-Bromophenyl)-1-hydroxyethyl]-2-thienyl}carbonyl)pyrimidin-4-yl]amino}-2-hydroxycyclopentyl]methyl sulfamate and [(1R,2S,4R)-4-{[5-({4-[(1R)-1-(3-Bromophenyl)-1-hydroxyethyl]-2-thienyl}carbonyl)pyrimidin-4-yl]amino}-2-hydroxycyclopentyl]methyl sulfamate]	–	< 10 nM	100	–	–
CN(C)[C@H](c1cccc(Cl)c1)c1csc(C(=O)c2cncnc2N[C@@H]2C[C@H](COS(N)(=O)=O)[C@@H](O)C2)c1 (single isomer, unassigned) [I-153a, [(1R,2S,4R)-4-{[5-({4-[(R)-(3-chlorophenyl)(dimethylamino)methyl]-2-thienyl}carbonyl)pyrimidin-4-yl]amino}-2-hydroxycyclopentyl]methyl sulfamate or [(1R,2S,4R)-4-{[5-({4-[(S)-(3-chlorophenyl)(dimethylamino)methyl]-2-thienyl}carbonyl)pyrimidin-4-yl]amino}-2-hydroxycyclopentyl]methyl sulfamate]	–	100 to 1000 nM	30	–	–
NS(=O)(=O)OC[C@H]1C[C@@H](Nc2ncncc2C(=O)c2cc(COc3ccccc3Br)cs2)C[C@@H]1O [I-98, [(1R,2S,4R)-4-{[5-({4-[(2-bromophenoxy)methyl]-2-thienyl}carbonyl)pyrimidin-4-yl]amino}-2-hydroxycyclopentyl]methyl sulfamate]	97%	< 10 nM	–	–	–
Cc1sc(C(=O)c2cncnc2N[C@@H]2C[C@H](COS(N)(=O)=O)[C@@H](O)C2)cc1[C@@H]1OCCc2ccccc21 [I-256b, [(1R,2S,4R)-4-{[5-({4-[(1R)-3,4-Dihydro-1H-isochromen-1-yl]-5-methyl-2-thienyl}carbonyl)pyrimidin-4-yl]amino}-2-hydroxycyclopentyl]methyl sulfamate]	99%	< 10 nM	–	–	–
NS(=O)(=O)OC[C@H]1C[C@@H](Nc2ncncc2C(=O)c2cc([C@@H]3OCCc4ccc(F)cc43)c(Cl)s2)C[C@@H]1O (single isomer, unassigned) [I-294b, [(1R,2S,4R)-4-{[5-({5-chloro-4-[(1R)-7-fluoro-3,4-dihydro-1H-isochromen-1-yl]-2-thienyl}carbonyl)pyrimidin-4-yl]amino}-2-hydroxycyclopentyl]methyl sulfamate or [(1R,2S,4R)-4-{[5-({5-chloro-4-[(1S)-7-fluoro-3,4-dihydro-1H-isochromen-1-yl]-2-thienyl}carbonyl)pyrimidin-4-yl]amino}-2-hydroxycyclopentyl]methyl sulfamate]	–	–	–	98%	< 10 nM
NS(=O)(=O)OC[C@H]1C[C@@H](Nc2ncncc2C(=O)c2cc([C@@H]3OCCc4ccc(Cl)cc43)c(Cl)s2)C[C@@H]1O (single isomer, unassigned) [I-282b, [(1R,2S,4R)-4-{[5-({5-chloro-4-[(1R)-7-chloro-3,4-dihydro-1H-isochromen-1-yl]-2-thienyl}carbonyl)pyrimidin-4-yl]amino}-2-hydroxycyclopentyl]methyl sulfamate or [(1R,2S,4R)-4-{[5-({5-chloro-4-[(1S)-7-chloro-3,4-dihydro-1H-isochromen-1-yl]-2-thienyl}carbonyl)pyrimidin-4-yl]amino}-2-hydroxycyclopentyl]methyl sulfamate]	–	–	–	102%	< 10 nM
NS(=O)(=O)OC[C@H]1C[C@@H](Nc2ncncc2C(=O)c2cc([C@@H]3NCc4ccc(Cl)cc43)c(Cl)s2)C[C@@H]1O (single isomer, unassigned) [I-262b, [(1R,2S,4R)-4-{[5-({5-chloro-4-[(1R)-6-chloro-2,3-dihydro-1H-isoindol-1-yl]-2-thienyl}carbonyl)pyrimidin-4-yl]amino}-2-hydroxycyclopentyl]methyl sulfamate or [(1R,2S,4R)-4-{[5-({5-chloro-4-[(1S)-6-chloro-2,3-dihydro-1H-isoindol-1-yl]-2-thienyl}carbonyl)pyrimidin-4-yl]amino}-2-hydroxycyclopentyl]methyl sulfamate]	–	< 10 nM	98	–	–
